Experimental data: PubChem BioAssay (NCI)
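Exposure lasted 48 hours, with cells grown in 96-well plates and compounds tested at five concentrations. TGI: concentration producing complete growth inhibition.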

Legend:
Test in all cases: inhibition of tumour cell growth, NCI panel, 48 h
HCC-2998 colon = tested on: HCC-2998 colon
UO-31 renal = tested on: UO-31 renal
LOX IMVI melanoma = tested on: LOX IMVI melanoma
KM20L2 colon = tested on: KM20L2 colon
SNB-19 CNS = tested on: SNB-19 CNS
NCI-H23 lung = tested on: NCI-H23 lung
SNB-75 CNS = tested on: SNB-75 CNS
K-562 leukemia = tested on: K-562 leukemia
M14 melanoma = tested on: M14 melanoma
NCI-H226 lung = tested on: NCI-H226 lung
TK-10 renal = tested on: TK-10 renal
OVCAR-8 ovarian = tested on: OVCAR-8 ovarian
KM12 colon = tested on: KM12 colon
RXF 393 renal = tested on: RXF 393 renal
HCT-15 colon = tested on: HCT-15 colon
UACC-257 melanoma = tested on: UACC-257 melanoma
NCI-H460 lung = tested on: NCI-H460 lung
SK-MEL-5 melanoma = tested on: SK-MEL-5 melanoma
OVCAR-4 ovarian = tested on: OVCAR-4 ovarian
U251 CNS = tested on: U251 CNS
CCRF-CEM leukemia = tested on: CCRF-CEM leukemia
XF 498 CNS = tested on: XF 498 CNS
LXFL 529 NSCLC = tested on: LXFL 529 NSCLC
HOP-62 NSCLC = tested on: HOP-62 NSCLC
OVCAR-3 ovarian = tested on: OVCAR-3 ovarian
OVCAR-5 ovarian = tested on: OVCAR-5 ovarian
IGROV1 ovarian = tested on: IGROV1 ovarian
HOP-18 NSCLC = tested on: HOP-18 NSCLC
SNB-78 CNS = tested on: SNB-78 CNS
HT29 colon = tested on: HT29 colon
HCT-116 colon = tested on: HCT-116 colon
RXF-631 renal = tested on: RXF-631 renal
A549 NSCLC = tested on: A549 NSCLC
SK-OV-3 ovarian = tested on: SK-OV-3 ovarian
SF-268 CNS = tested on: SF-268 CNS
SN12C renal = tested on: SN12C renal
ACHN renal = tested on: ACHN renal
SW-620 colon = tested on: SW-620 colon
SK-MEL-2 melanoma = tested on: SK-MEL-2 melanoma
DLD-1 colon = tested on: DLD-1 colon
DMS 114 small cell lung = tested on: DMS 114 small cell lung
SR leukemia = tested on: SR leukemia
EKVX NSCLC = tested on: EKVX NSCLC
A498 renal = tested on: A498 renal
NCI-H522 lung = tested on: NCI-H522 lung
M19-MEL melanoma = tested on: M19-MEL melanoma
HL-60(TB) leukemia = tested on: HL-60(TB) leukemia
SK-MEL-28 melanoma = tested on: SK-MEL-28 melanoma
786-0 renal = tested on: 786-0 renal
DMS 273 small cell lung = tested on: DMS 273 small cell lung
COLO 205 colon = tested on: COLO 205 colon
SF-539 CNS = tested on: SF-539 CNS
SF-295 CNS = tested on: SF-295 CNS
MALME-3M melanoma = tested on: MALME-3M melanoma
MOLT-4 leukemia = tested on: MOLT-4 leukemia
MCF7 breast = tested on: MCF7 breast
BT-549 breast = tested on: BT-549 breast
RPMI-8226 leukemia = tested on: RPMI-8226 leukemia
MDA-N = tested on: MDA-N
HS 578T breast = tested on: HS 578T breast
NCI/ADR-RES ovarian = tested on: NCI/ADR-RES ovarian
MDA-MB-435 = tested on: MDA-MB-435
DU-145 prostate = tested on: DU-145 prostate
UACC-62 melanoma = tested on: UACC-62 melanoma
T-47D breast = tested on: T-47D breast
MDA-MB-231 breast = tested on: MDA-MB-231 breast
CAKI-1 renal = tested on: CAKI-1 renal
PC-3 prostate = tested on: PC-3 prostate

With COC(=O)C(CCC1(C)OCCO1)C(C)=O (stereo unspecified) the TGI (HCC-2998 colon) was greater than 100 µM, the TGI (UO-31 renal) was greater than 100 µM and the TGI (LOX IMVI melanoma) was greater than 100 µM. It also gave a TGI (KM20L2 colon) greater than 100 µM, a TGI (SNB-19 CNS) greater than 100 µM and a TGI (NCI-H23 lung) greater than 100 µM. It also gave a TGI (SNB-75 CNS) greater than 100 µM, a TGI (K-562 leukemia) greater than 100 µM and a TGI (M14 melanoma) greater than 100 µM. The TGI (NCI-H226 lung) was greater than 100 µM, the TGI (TK-10 renal) was greater than 100 µM and the TGI (OVCAR-8 ovarian) was greater than 100 µM. For the same compound, the TGI (KM12 colon) was greater than 100 µM, the TGI (RXF 393 renal) was greater than 100 µM and the TGI (HCT-15 colon) was greater than 100 µM. It also gave a TGI (UACC-257 melanoma) greater than 100 µM, a TGI (NCI-H460 lung) greater than 100 µM and a TGI (SK-MEL-5 melanoma) greater than 100 µM. It also gave a TGI (OVCAR-4 ovarian) greater than 100 µM, a TGI (U251 CNS) greater than 100 µM and a TGI (CCRF-CEM leukemia) greater than 100 µM. For the same compound, the TGI (XF 498 CNS) was greater than 100 µM, the TGI (LXFL 529 NSCLC) was greater than 100 µM and the TGI (HOP-62 NSCLC) was greater than 100 µM. For the same compound, the TGI (OVCAR-3 ovarian) was greater than 100 µM, the TGI (OVCAR-5 ovarian) was greater than 100 µM and the TGI (IGROV1 ovarian) was greater than 100 µM. For the same compound, the TGI (HOP-18 NSCLC) was greater than 100 µM, the TGI (SNB-78 CNS) was greater than 100 µM and the TGI (HT29 colon) was greater than 100 µM. The TGI (HCT-116 colon) was greater than 100 µM, the TGI (RXF-631 renal) was greater than 100 µM and the TGI (A549 NSCLC) was greater than 100 µM. For the same compound, the TGI (SK-OV-3 ovarian) was greater than 100 µM, the TGI (SF-268 CNS) was greater than 100 µM and the TGI (SN12C renal) was greater than 100 µM. For the same compound, the TGI (ACHN renal) was greater than 100 µM, the TGI (SW-620 colon) was greater than 100 µM and the TGI (SK-MEL-2 melanoma) was greater than 100 µM. It also gave a TGI (DLD-1 colon) greater than 100 µM, a TGI (DMS 114 small cell lung) greater than 100 µM and a TGI (SR leukemia) greater than 100 µM. The TGI (EKVX NSCLC) was greater than 100 µM, the TGI (A498 renal) was greater than 100 µM and the TGI (NCI-H522 lung) was greater than 100 µM. It also gave a TGI (M19-MEL melanoma) greater than 100 µM, a TGI (HL-60(TB) leukemia) greater than 100 µM and a TGI (SK-MEL-28 melanoma) greater than 100 µM. It also gave a TGI (786-0 renal) greater than 100 µM, a TGI (DMS 273 small cell lung) greater than 100 µM and a TGI (COLO 205 colon) greater than 100 µM. It also gave a TGI (SF-539 CNS) greater than 100 µM, a TGI (SF-295 CNS) greater than 100 µM and a TGI (MALME-3M melanoma) greater than 100 µM. It also gave a TGI (MOLT-4 leukemia) greater than 100 µM.

COc1ccc(Cc2cc(OC)c(OC)c(OC)c2)cc1O gave a TGI (HCC-2998 colon) greater than 65.9 µM, a TGI (UO-31 renal) greater than 63.2 µM and a TGI (MCF7 breast) greater than 100 µM. It also gave a TGI (BT-549 breast) greater than 100 µM, a TGI (LOX IMVI melanoma) greater than 100 µM and a TGI (KM20L2 colon) greater than 100 µM. It also gave a TGI (SNB-19 CNS) greater than 100 µM, a TGI (RPMI-8226 leukemia) greater than 100 µM and a TGI (NCI-H23 lung) greater than 100 µM. The TGI (SNB-75 CNS) was greater than 100 µM, the TGI (K-562 leukemia) was greater than 100 µM and the TGI (M14 melanoma) was greater than 100 µM. The TGI (NCI-H226 lung) was 99.4 µM, the TGI (MDA-N) was greater than 100 µM and the TGI (TK-10 renal) was greater than 100 µM. The TGI (OVCAR-8 ovarian) was greater than 100 µM, the TGI (RXF 393 renal) was greater than 100 µM and the TGI (HCT-15 colon) was greater than 100 µM. For the same compound, the TGI (HS 578T breast) was greater than 100 µM, the TGI (UACC-257 melanoma) was greater than 100 µM and the TGI (NCI-H460 lung) was greater than 100 µM. It also gave a TGI (SK-MEL-5 melanoma) greater than 37 µM, a TGI (OVCAR-4 ovarian) greater than 100 µM and a TGI (NCI/ADR-RES ovarian) greater than 100 µM. It also gave a TGI (U251 CNS) greater than 22.7 µM, a TGI (CCRF-CEM leukemia) greater than 100 µM and a TGI (XF 498 CNS) greater than 100 µM. It also gave a TGI (MDA-MB-435) greater than 100 µM, a TGI (LXFL 529 NSCLC) greater than 100 µM and a TGI (HOP-62 NSCLC) greater than 49.6 µM. For the same compound, the TGI (OVCAR-3 ovarian) was greater than 100 µM, the TGI (DU-145 prostate) was greater than 100 µM and the TGI (OVCAR-5 ovarian) was greater than 100 µM. It also gave a TGI (IGROV1 ovarian) greater than 100 µM, a TGI (HOP-18 NSCLC) greater than 31.6 µM and a TGI (HT29 colon) greater than 90.6 µM. It also gave a TGI (HCT-116 colon) of 13.6 µM, a TGI (UACC-62 melanoma) greater than 73.2 µM and a TGI (T-47D breast) greater than 100 µM. The TGI (RXF-631 renal) was greater than 100 µM, the TGI (A549 NSCLC) was greater than 100 µM and the TGI (SK-OV-3 ovarian) was greater than 80.2 µM. The TGI (SF-268 CNS) was greater than 100 µM, the TGI (SN12C renal) was greater than 100 µM and the TGI (ACHN renal) was greater than 100 µM. It also gave a TGI (SW-620 colon) greater than 100 µM, a TGI (SK-MEL-2 melanoma) greater than 100 µM and a TGI (DLD-1 colon) greater than 100 µM. The TGI (DMS 114 small cell lung) was 0.137 µM, the TGI (MDA-MB-231 breast) was greater than 100 µM and the TGI (SR leukemia) was greater than 100 µM. For the same compound, the TGI (EKVX NSCLC) was greater than 100 µM, the TGI (A498 renal) was 76.8 µM and the TGI (NCI-H522 lung) was 5.49 µM. The TGI (M19-MEL melanoma) was greater than 100 µM, the TGI (CAKI-1 renal) was greater than 100 µM and the TGI (HL-60(TB) leukemia) was greater than 26.6 µM. For the same compound, the TGI (SK-MEL-28 melanoma) was greater than 100 µM, the TGI (786-0 renal) was greater than 100 µM and the TGI (DMS 273 small cell lung) was greater than 100 µM. It also gave a TGI (COLO 205 colon) greater than 57.1 µM, a TGI (PC-3 prostate) greater than 100 µM and a TGI (SF-539 CNS) of 0.041 µM. It also gave a TGI (SF-295 CNS) greater than 100 µM, a TGI (MALME-3M melanoma) greater than 100 µM and a TGI (MOLT-4 leukemia) greater than 100 µM.
